The results in this text go back to PMC11017298, “Macrocyclic Oxindole Peptide Epoxyketones—A Comparative Study of Macrocyclic Inhibitors of the 20S Proteasome” (ACS Medicinal Chemistry Letters, 2024).

Usually IC50 stands for the concentration that gives 50% inhibition.

What all share (format): biochemical
Experiment [1] concerns the target T1, human 20S proteasome ChT-L activity (Homo sapiens, UniProt P28074).
T1 construct: human RBC proteasome was purchased from South Bay Bio; purchased South Bay Bio; host or cells: human red blood cells
Briefly: Fluorometric kinetic enzyme assay, 20S proteasome ChT-L activity (Suc-LLVY-AMC). As to conditions: for IC50: constitutive human 20S proteasome, Suc-LLVY-AMC, 37 C, 10 min. The procedure:
(§1) Fluorometric kinetic enzyme inhibition assays (for details, see Supporting Information) were performed for the ChT-L activity of the constitutive 20S proteasome to compare IC50 values for 5 with linear analogue 6, unoxidized macrocycles 15a and 15b, and macrocyclic C-terminal amide 12 (Table 1). Furthermore, inhibition of the 20S proteasomal ChT-L activity was compared with T-L and PGPH-L activities and with inhibition of serine protease chymotrypsin and cysteine proteases cathepsin B and m-calpain.
(§2) 6. In Vitro Kinetic Enzyme Assays
(§3) The inhibitory potency and selectivity of the final compounds were tested using in vitro fluorescent enzyme kinetics. The enzyme assays used the fluorogenic substrate Suc-Leu-Leu-Val-Tyr-AMC (Suc-LLVY-AMC) and either the human 20S proteasome or alternate proteases chymotrypsin, m-calpain and cathepsin B. For cathepsin B, Cbz-Arg-Arg-AMC was used as the fluorogenic substrate. Kinetic enzyme assays were carried out on a fluorescent 96-well plate reader and AMC-substrate hydrolysis was measured at 353 nm excitation and 442 nm emission. Wells with inhibitor and wells with control solution were run in tandem. Vi and v0 were calculated from the slope of the measured relative fluorescent units (RFUs) graphed against time for inhibitor and control wells, respectively. Values for vi /v0 were plotted as a function of inhibitor concentration with GraphPad Prism and IC50 values were calculated from a nonlinear regression analysis of the data ([Inhibitor] vs. response, three parameters).
Human 20S Proteasome ChT-L Activity: A well was loaded with 86 µL of buffer (20 mM HEPES, 0.5 mM EDTA, 0.037% SDS, pH 7.8), 2 µL of fluorogenic substrate (Suc-LLVY-AMC, 5 mM in DMSO), 20 µL of human 20S proteasome (0.34 µM in H2O) and either 2 µL of inhibitor (at varying concentrations in DMSO) or 2 µL of DMSO (control). The fluorescent signal of the cleaved AMC chromophore was measured in RFUs at 37 °C over a span of 10 minutes with measurements taken every 20 seconds. […]

Experiment [2] addresses T2, human 20S proteasome T-L activity (Homo sapiens, UniProt Q99436).
T2 construct: human RBC proteasome was purchased from South Bay Bio; purchased South Bay Bio; host or cells: human red blood cells
Briefly: Fluorometric kinetic enzyme assay, 20S proteasome T-L activity (Ac-RLR-AMC). The procedure: as §1, §2
as §3, with “parameters). […]” for “parameters).”
Human 20S Proteasome T-L Activity: A well was loaded with 69 µL of buffer (50 mM Tris, 1 mM EDTA, 100 mM NaCl, pH 7.5), 2 µL of fluorogenic substrate (Ac-RLR-AMC, 59 mM in DMSO), 2 µL of human 20S proteasome (2.6 µM in H2O) and either 2 µL of inhibitor (at varying concentrations in DMSO) or 2 µL of DMSO (control). […]

Experiment [3] concerns the target T3, human 20S proteasome PGPH-L activity (Homo sapiens, UniProt P28072).
T3 construct: human RBC proteasome was purchased from South Bay Bio; purchased South Bay Bio; host or cells: human red blood cells
Briefly: Fluorometric kinetic enzyme assay, 20S proteasome PGPH-L activity (Cbz-LLE-AMC). As to the method:
as §1, §2
as §3, with “parameters). […]” for “parameters).”

In the next experiment the target is T4, chymotrypsin (Bos taurus, UniProt P00766).
T4 construct: chymotrypsin was purchased from Sigma Aldrich; purchased Sigma Aldrich; host or cells: bovine pancreas
Briefly: Fluorometric kinetic enzyme assay, chymotrypsin (Suc-LLVY-AMC).

The target in experiment [4] is T5, cathepsin B enzyme from human liver (Homo sapiens, UniProt P07858).
T5 construct: from human liver; purchased Millipore; host or cells: human liver
The experiment can be described thus: Fluorometric kinetic enzyme assay, cathepsin B (Cbz-Arg-Arg-AMC).

Another experiment concerns the target T6, m-calpain (Sus scrofa, UniProt P35750).
T6 construct: erythrocytes calpain-1 were purchased from Millipore; purchased Millipore; host or cells: porcine erythrocytes
T6 sequence (P35750 1-714): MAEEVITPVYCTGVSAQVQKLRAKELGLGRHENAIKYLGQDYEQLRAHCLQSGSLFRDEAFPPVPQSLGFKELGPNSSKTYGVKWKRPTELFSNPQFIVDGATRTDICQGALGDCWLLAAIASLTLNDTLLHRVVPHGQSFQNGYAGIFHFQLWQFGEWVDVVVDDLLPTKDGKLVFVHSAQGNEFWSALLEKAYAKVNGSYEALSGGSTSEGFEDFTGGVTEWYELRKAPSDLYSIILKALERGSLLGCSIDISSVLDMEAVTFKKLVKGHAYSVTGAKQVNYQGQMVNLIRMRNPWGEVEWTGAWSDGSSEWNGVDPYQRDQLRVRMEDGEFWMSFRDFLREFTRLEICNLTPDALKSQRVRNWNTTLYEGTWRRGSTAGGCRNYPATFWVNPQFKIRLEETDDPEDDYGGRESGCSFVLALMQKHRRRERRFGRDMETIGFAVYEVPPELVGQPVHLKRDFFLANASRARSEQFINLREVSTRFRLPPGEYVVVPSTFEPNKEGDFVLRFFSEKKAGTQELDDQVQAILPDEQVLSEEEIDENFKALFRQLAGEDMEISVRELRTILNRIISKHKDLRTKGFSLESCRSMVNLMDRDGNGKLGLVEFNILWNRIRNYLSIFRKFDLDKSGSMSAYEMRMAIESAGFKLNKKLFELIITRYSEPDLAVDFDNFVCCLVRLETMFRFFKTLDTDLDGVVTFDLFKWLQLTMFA
T6 sequence (P04574 1-266 partner): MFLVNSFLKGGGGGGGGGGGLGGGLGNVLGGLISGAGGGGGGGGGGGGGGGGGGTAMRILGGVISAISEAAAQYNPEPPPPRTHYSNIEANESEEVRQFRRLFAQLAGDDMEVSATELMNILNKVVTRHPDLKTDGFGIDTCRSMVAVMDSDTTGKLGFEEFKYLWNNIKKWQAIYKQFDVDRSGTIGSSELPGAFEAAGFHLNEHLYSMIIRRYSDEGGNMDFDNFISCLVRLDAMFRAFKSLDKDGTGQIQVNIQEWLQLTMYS
The experiment can be described thus: Fluorometric kinetic enzyme assay, m-calpain (Suc-LLVY-AMC).

[5] abbreviates: human 20S proteasome, Ac-RLR-AMC, N.I. = no inhibition at 130 μM, read-out: IC50 20S Proteasome T-L Activity.
[6] abbreviates: human 20S proteasome, Cbz-LLE-AMC, N.I. = no inhibition at 130 μM, read-out: IC50 20S Proteasome PGPH-L Activity.
Where [7] appears, read: Suc-LLVY-AMC, N.I. = no inhibition at 130 μM, read-out: IC50 Chymotrypsin.
[8] abbreviates: human liver enzyme, Cbz-Arg-Arg-AMC, pH 6.0, N.I. = no inhibition at 130 μM, read-out: IC50 Cathepsin B.
[9] abbreviates: Suc-LLVY-AMC, N.I. = no inhibition at 130 μM, read-out: IC50 m-Calpain.

Molecules are shown by their SMILES. Read-outs that look alike come from different tables or passages of the source. A value given as a limit tells only on which side of the number the result lay.

On to `CC(=O)N[C@H]1Cc2ccc([N+](=O)[O-])c(c2)Oc2ccc(cc2)C[C@@H](C(=O)N[C@@H](CC(C)C)C(=O)[C@@]2(C)CO2)NC(=O)[C@H](CC(C)C)NC1=O` [15a], for which the IC50 in experiment [1] is 0.55 ± 0.09 µM; in experiment [2] (setting [5]), more than 130 µM; in experiment [3] (setting [6]) it was more than 130 µM; at chymotrypsin (setting [7]), more than 130 µM; in experiment [4] (setting [8]), more than 130 µM; at m-calpain (setting [9]), more than 130 µM.
Turning to `CC(=O)N[C@H]1Cc2ccc([N+](=O)[O-])c(c2)Oc2ccc(cc2)CC[C@@H](C(=O)N[C@@H](CC(C)C)C(=O)[C@@]2(C)CO2)NC(=O)[C@H](CC(C)C)NC1=O` [15b], the 50% inhibitory concentration (IC50) is 2.9 ± 0.42 µM in experiment [1]; more than 130 µM in experiment [2] (setting [5]); more than 130 µM in experiment [3] (setting [6]); more than 130 µM at chymotrypsin (setting [7]); more than 130 µM in experiment [4] (setting [8]); more than 130 µM on m-calpain (setting [9]).
For the compound `CC(C)C[C@H](NC(=O)[C@H](CCc1ccccc1)NC(=O)CN1CCOCC1)C(=O)N[C@@H](Cc1ccccc1)C(=O)N[C@@H](CC(C)C)C(=O)[C@@]1(C)CO1` [carfilzomib, reference compound], the half-inhibitory concentration (IC50) (on chymotrypsin (setting [7]); in experiment [4] (setting [8]); at m-calpain (setting [9])) was more than 130 µM in each case.
Take `CC(=O)N[C@H]1Cc2ccc([N+](=O)[O-])c(c2)Oc2ccc3c(c2)C(C[C@@H](C(=O)N[C@@H](CC(C)C)C(=O)[C@@]2(C)CO2)NC(=O)[C@H](CC(C)C)NC1=O)C(=O)N3` (stereo partly drawn) [compound 5]: the IC50 in experiment [1] was 0.19 ± 0.02 µM; in experiment [2] (setting [5]), more than 130 µM; in experiment [3] (setting [6]) it was 52.5 ± 16.6 µM; on chymotrypsin (setting [7]) it was more than 130 µM; in experiment [4] (setting [8]), more than 130 µM; at m-calpain (setting [9]), more than 130 µM. Further, the “inhibition of T-L activity, in words” value in experiment [2] is given as “does not significantly inhibit”. In addition, the “inhibition of PGPH-L activity, in words” value in experiment [3] is recorded as “does not significantly inhibit”. For the same compound, the “inhibition of chymotrypsin, in words” value against chymotrypsin was “not found to have any cross-reactivity”. In experiment [4], the “inhibition of cathepsin B, in words” value is “not found to have any cross-reactivity”. For the same compound, the “inhibition of m-calpain, in words” value on m-calpain is reported as “not found to have any cross-reactivity”.
For `CC(=O)N[C@@H](Cc1ccc([N+](=O)[O-])c(F)c1)C(=O)N[C@@H](CC(C)C)C(=O)N[C@@H](CC1C(=O)Nc2ccc(O)cc21)C(=O)N[C@@H](CC(C)C)C(=O)[C@@]1(C)CO1` (stereo partly drawn) [compound 6], the IC50 in experiment [1] was 1 ± 0.1 µM; in experiment [2], more than 130 µM; in experiment [3] it was more than 130 µM; against chymotrypsin, more than 130 µM; in experiment [4], more than 130 µM; against m-calpain, more than 130 µM. For the same compound, in experiment [1] (linear analogue versus macrocyclic 5), the “fold lower potency (ChT-L) than macrocycle 5” value was 4 fold.
As for `CC(=O)N[C@H]1Cc2ccc([N+](=O)[O-])c(c2)Oc2ccc3c(c2)C(C[C@@H](C(=O)N[C@@H](CC(C)C)C(N)=O)NC(=O)[C@H](CC(C)C)NC1=O)C(=O)N3` (stereo partly drawn) [compound 12], the “inhibitory potency for the proteasome, in words” value in experiment [1] (comparison among tested inhibitors) is on record as “least potent inhibitor”. The IC50 in experiment [1] is 25 ± 1 µM; in experiment [2] (setting [5]) it was 46.1 ± 3.1 µM; in experiment [3] (setting [6]), more than 130 µM; on chymotrypsin (setting [7]), more than 130 µM; in experiment [4] (setting [8]), more than 130 µM; at m-calpain (setting [9]), more than 130 µM.
`CC(C)C[C@@H](C=O)NC(=O)[C@@H]1Cc2ccc(cc2)Oc2cc(ccc2[N+](=O)[O-])C[C@H](NC(=O)OCc2ccccc2)C(=O)N[C@@H](CC(C)C)C(=O)N1` [compound 16, reference compound]: the half-inhibitory concentration (IC50) in experiment [1] was 0.24 ± 0.06 µM; in experiment [2] (setting [5]), more than 130 µM; in experiment [3] (setting [6]), 7.51 ± 2.32 µM; at chymotrypsin (setting [7]), more than 130 µM; in experiment [4] (setting [8]), 3.1 ± 1 µM; at m-calpain (setting [9]), 2 ± 0.3 µM. Moreover, the “inhibition of cathepsin B, in words” value in experiment [4] is “inhibits”. For the same compound, the “inhibition of m-calpain, in words” value at m-calpain is recorded as “inhibits”.
